Data taken from patent publication US11549123B2, “Plant EPSP synthases and methods of use” (PIONEER HI-BRED INTERNATIONAL, INC., priority 2015, dated 2023).

Columns and labels:
[1] = tested on: Glycine max (93Y21) hairy root; assay: Hairy root growth from transformed soybean cotyledons with or without 25 uM glyphosate; type: cell-based; details: medium containing 25 uM glyphosate
[2] = biological target: T1, Zea mays EPSPS variant Zm-H6 (868-H6) with A36G (H6-A36G) (Zea mays, UniProt O24566, A1R/A35G/A3W/A415G/A71Q/D401G/E301S/E390G/G101A/I207L/K83R/L97C/T278A/T360S/T440Q/V437R); assay: Rapid two-rate method for (kcat/KM)*KI, H6-A36G; type: biochemical; details: [E] 0.07 uM, [Gly] 1000 uM
T1 sequence (O24566 with tags, fused parts or gaps A1R/A3W/A35G/A71Q/K83R/L97C/G101A/I207L/T278A/E301S/T360S/E390G/D401G/A415G/V437R/T440Q): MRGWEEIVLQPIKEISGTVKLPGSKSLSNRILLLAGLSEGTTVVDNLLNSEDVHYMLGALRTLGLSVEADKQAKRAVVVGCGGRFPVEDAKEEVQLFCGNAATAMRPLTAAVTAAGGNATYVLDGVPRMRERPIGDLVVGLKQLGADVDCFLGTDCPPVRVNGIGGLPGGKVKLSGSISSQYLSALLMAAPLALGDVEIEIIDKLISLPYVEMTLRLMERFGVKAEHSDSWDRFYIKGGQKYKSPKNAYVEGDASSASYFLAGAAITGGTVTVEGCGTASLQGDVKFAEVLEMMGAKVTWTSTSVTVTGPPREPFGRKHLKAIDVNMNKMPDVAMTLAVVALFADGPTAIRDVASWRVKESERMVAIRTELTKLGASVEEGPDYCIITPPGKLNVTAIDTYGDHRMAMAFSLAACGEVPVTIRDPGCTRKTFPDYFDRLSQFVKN
Description: There are several practical considerations for accurately estimating (kcat/KM)*KI with the rapid method. […] 2) The inhibitor concentration must be adjusted so as to obtain a degree of inhibition that minimally amplifies the error in the term v0-vi in Equation 3. If inhibition is too little, v0-vi will be small, and the error in the multiplier vi×v0/(v0-vi) will be large. […] 3) Substrate concentration should be set at the approximate KM of the parental variant(s), subject to the sensitivity of the assay. High substrate concentration obscures sensitivity to the inhibitor and reduces stringency for capturing improvements in KM. Depending on the necessity for speed, there exists opportunity for customizing enzyme and inhibitor concentrations. […] The rapid method was repeated for those and obtained data that correlated better with data obtained by substrate saturation analysis. For screening purposes however, that correlation step is not necessary. Conditions can be set so that variants with a pre-determined minimal fitness level are accurately quantified.
In Table 15, parameters above the heavy line for the rapid method were obtained under standard conditions. For variants shown below the heavy line, the rapid analysis was repeated with enzyme or glyphosate concentrations adjusted as needed to generate sufficient signal within the limits for linear initial rates.

[3] = biological target: EPSPS enzyme comprising 103I, 107S, and 445G (Zea mays, UniProt O24566, N444G/P106S/T102I); assay: kcat/KM*KI of EPSPS comprising 103I, 107S, 445G; type: biochemical; details: glyphosate as inhibitor
Sequence of EPSPS enzyme comprising 103I, 107S, and 445G (O24566 entry or part of it T102I/P106S/N444G): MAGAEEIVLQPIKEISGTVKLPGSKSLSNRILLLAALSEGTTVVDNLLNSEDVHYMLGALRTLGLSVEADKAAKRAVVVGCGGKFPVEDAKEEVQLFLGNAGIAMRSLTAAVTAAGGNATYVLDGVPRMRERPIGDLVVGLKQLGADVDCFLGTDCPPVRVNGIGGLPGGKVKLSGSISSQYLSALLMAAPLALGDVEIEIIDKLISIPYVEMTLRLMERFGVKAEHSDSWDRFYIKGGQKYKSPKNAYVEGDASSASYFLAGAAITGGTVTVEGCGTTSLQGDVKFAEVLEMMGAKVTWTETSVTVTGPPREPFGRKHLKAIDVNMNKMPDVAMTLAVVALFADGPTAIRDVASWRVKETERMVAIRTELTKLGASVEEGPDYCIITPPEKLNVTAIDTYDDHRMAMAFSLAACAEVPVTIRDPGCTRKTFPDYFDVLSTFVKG
Description: The EPSPS polypeptides and active variants and fragments thereof disclosed herein may have improved catalytic capacity in the presence of glyphosate when compared to previously identified EPSPS polypeptides. The parameter that best indicates the fitness of this trait in vivo is kcat/KM*KI. The EPSPS polypeptides disclosed herein can have an increased kcat/KM*KI, when compared to previously known EPSPS enzymes. By “increase” is intended any statistically significant increase when compared to an appropriate control. In some embodiments, an appropriate control is a previously known EPSPS sequence, such as that set forth in SEQ ID NO:2 (maize), SEQ ID NO:7 (rice), SEQ ID NO:8 (sorghum), SEQ ID NO:9 (sunflower), SEQ ID NO:13 (soybean), SEQ ID NO:14 (wheat), SEQ ID NO:15 (Brassica rapa), SEQ ID NO:16 (tomato), or SEQ ID NO:17 (potato). In some embodiments, the increase in the kcat/KM*KI when compared to SEQ ID NO:2, 7, 8 9, 13, 14, 15, 16, or 17 can comprise about a 150, 200, 250, 300, 350, 400, 450, 500, 550, 600, 650, 700, 750, 800-fold or greater increase. In still further embodiments, kcat/KM*KI may include, for example, a kcat/KM*KI of more than about 2000, 2500, 3000, 3500, 4000, 4500, 5000, 5500, 6000, 6500, 7000, 7500, 8000, 8500, 9000, 9500, 10000, or more.

O=C(O)CNCP(=O)(O)O [glyphosate, N-phosphonomethylglycine]
root growth of untransformed cotyledons [1]: no growth
(kcat/KM)*KI [2]: 4500
(kcat/KM)*KI [3]: 2254
